Experimental data from patent publication US4940730A, “Angiogenesis enhancer” (Takeda Chemical Industries, Ltd., priority 1987, dated 1990).
Structures can show the parent of a compound that is named as a salt.

Tested on: hen's chlorioallantoic membrane
Assay: CAM (Chorio Allantoic Membrane) assay
Format: in vivo
Details: for ED50: amount of drug which gave the numerical value 5 (positive rate) in CAM assay; for Positive rate of CAM assay: average neovascularization score (++=10, +=7, °=3, -=0), 3 days on membrane
Experimental: CAM (Chorio Allantoic Membrane) assay was conducted on various compounds of the present invention. The technique of the CAM assay was that modified somewhat on Auerbach's method [Developmental Biology, 41, 391 (1974)]. More specifically, hen's fertile eggs were incubated for three days at 37° C. (Napco carbon dioxide incubator-6300 was employed, CO2 :0% H2 O saturated). Polypropylene-made discs (6 mm. diameter) were spotted with a chloroform:ethanol (1:4 by volume) solution of each compound so that the concentration may be 0, 0.25, 0.64, 1.6, 4, 10 and 25 ug, respectively. The test materials were air-dried in a clean bench, which were then placed quietly on hen's chlorioallantoic membrane, followed by incubation at 37° C. for further three days. Then, the vascularization state was observed. In the tables, the positive rates were calculated on the following basis. Namely, degrees of neovascularization were determined as ++ for very strong, + for strong, ° for weak and - for negative, and they were numerized as 10, 7, 3 and 0, respectively. The average numerical value in each of the concentrations of the respective samples was made as positive rate. Further, the amount of the drug which gave the numerical value 5 in each sample was shown as ED50 value (ug/disc).

[1] = amount of sample 0.64 μg per disc
[2] = amount of sample 1.6 μg per disc
[3] = amount of sample 10 μg per disc
[4] = amount of sample 25 μg per disc

Structure (SMILES) | ED50 [ug/disc] | Positive rate of CAM assay [1] | Positive rate of CAM assay [2] | Positive rate of CAM assay (amount of sample 4 μg per disc) | Positive rate of CAM assay [3] | Positive rate of CAM assay [4]
CCCCCCCC/C=C\CCCCCCCCCCCCN [1-Amino-13-docosene.HCl] | 0.94 | 3.4 | 7.0 | 8.8 | 10 | > 10
C=CCCCCCCCCCCCCCCCCCCCC [1-Docosene] | 5.46 | 0 | 0 | 2.5 | 10 | 9.3
CCCCCCCCCCCCCCCCCCCCCC[N+](C)(C)C [1-Trimethyammonio docosane bromide] | 4.00 | 0 | 4.5 | 5.0 | 8.0 | 
CCCCCCCC/C=C\CCCCCCCCCCCC(=O)Nc1ccc(Cl)cc1C(=O)O [2-NH2-4-Cl-BzCO2 H, N-erucoyl-2-amino-5-chlorobenzoic acid] | 2.70 | 2.6 | 4.2 | 5.6 | 8.0 | 10
CCCCCCCC/C=C\CCCCCCCCCCCC(=O)N1C(C(=O)O)CSC1c1ccncc1 (stereo not shown) [2-Py-Thia-CO2 H] | 2.67 | 2.8 | 2.6 | 6.8 | 10 | 10
CCCCCCCCC1OC1CCCCCCCCCCCC(N)=O (stereo not shown) [13,14-Epoxyerucamide] | 2.22 | 1.5 | 3.3 | 8.5 | 10 | 10
CCCCCCCCC1OC1CCCCCCCCCCCCO (stereo not shown) [13, 14-Eopxy-docosan-1-ol] | 5.18 | 0 | 0 | 3.3 | 9.3 | 10
CCCCCCCC/C=C\CCCCCCCCCCCCO [13-Docosen-1-ol] | 2.15 | 1.4 | 4.8 | 6.8 | 9.4 | 10
CCCCCCCCCCCCCCCCCCCC(N)=O [Arachidamide] | 11.5 | 0 | 2.8 | 3.4 | 4.6 | 7.4
CCCCCCCCCCCCCCCCCCCC(=O)O [Arachidic acid] | 4.00 | 0 | 4.6 | 4.6 | 7.6 | 8.8
CCCCC/C=C\C/C=C\C/C=C\C/C=C\CCCC(N)=O [Arachidonamide] | 6.13 | 1.3 | 1.6 | 2.9 | 7.4 | 9.6
CCCCC/C=C\C/C=C\C/C=C\C/C=C\CCCC(=O)O [Arachidonic acid] | 3.64 | 2.5 | 3.5 | 5.3 | 7 | 10
CCCCCCCCCCCCCCCCCCCCCC(N)=O [Behenamide] | 2.76 | 0 | 1.8 | 7.6 | 10 | 10
CCCCCCCC/C=C/CCCCCCCCCCCC(N)=O [Brassidamide] | 1.89 | 0 | 2.0 | 7.4 | 9.3 | 10
CCCCCCCC/C=C/CCCCCCCCCCCC(=O)O [Brassidic acid] | 1.82 | 3.5 | 6 | 6 | 9.3 | 10
CCCC(N)=O [Butyramide, reference compound] |  | 0 | 0 | 0 | 0 | 0
CCCCCCCCCCCCCCCCCCCCCCCCCC(=O)O [Cerotic acid] | 2.75 | 1.8 | 2.5 | 7.8 | 9.3 | 8.5
CC/C=C\C/C=C\C/C=C\C/C=C\C/C=C\C/C=C\CCC(=O)O [Docosahexaenoic acid] |  | 0 | 0 | 0 | 0.6 | 4.8
CCCCCCCCCCCCCCCCCCCCCCO [Docosan-1-ol] | 2.55 | 0 | 1.8 | 8.3 | 10 | 10
CCCCCCCC/C=C/CCCCCCCC(=O)O [Elaidic acid] |  | 0 | 0 | 3 | 4 | 4
CCCCCCCCC(O)C(O)CCCCCCCCCCCC(N)=O (stereo not shown) [Erucamide, diOH, 13,14-dihydroxydocosanamide] | 5.62 | 0 | 2.0 | 3.8 | 7.0 | 9.4
CCCCCCCCC(O)C(O)CCCCCCCCCCCC(=O)O (stereo not shown) [Erucic acid diOH] | 3.45 | 0 | 2.0 | 7.4 | 8.2 | 10
CCCCCCCCCCCCCCCCCCCCCCCC(=O)O [Lignoceric acid] | 4.61 | 1.4 | 2 | 4.6 | 7.6 | 6.2
CCCCC/C=C\C/C=C\CCCCCCCC(=O)O [Linoleic acid] | 7.69 | 0 | 1.8 | 2.5 | 6 | 10
CCCCCCCCCCCCCC(N)=O [Myristamide] |  | 0 | 0 | 1.3 | 2.6 | 3.5
